Patent US8765994B2, “Ship 1 modulators” (The University of British Columbia, priority 2001, dated 2014)

Tests used:
antiplasmodial = conditions: reported in literature; cited from earlier work
SHIP 1 enzyme = molecular target: T1, SHIP 1 enzyme (Homo sapiens, UniProt Q92835); experiment: SHIP 1 enzyme assay (inorganic phosphate release, malachite green); type: biochemical; conditions: FIG. 1
T1 construct: hemagglutinin (HA); hexahistidine (His6); made in house
T1 sequence (Q92835 1-1189): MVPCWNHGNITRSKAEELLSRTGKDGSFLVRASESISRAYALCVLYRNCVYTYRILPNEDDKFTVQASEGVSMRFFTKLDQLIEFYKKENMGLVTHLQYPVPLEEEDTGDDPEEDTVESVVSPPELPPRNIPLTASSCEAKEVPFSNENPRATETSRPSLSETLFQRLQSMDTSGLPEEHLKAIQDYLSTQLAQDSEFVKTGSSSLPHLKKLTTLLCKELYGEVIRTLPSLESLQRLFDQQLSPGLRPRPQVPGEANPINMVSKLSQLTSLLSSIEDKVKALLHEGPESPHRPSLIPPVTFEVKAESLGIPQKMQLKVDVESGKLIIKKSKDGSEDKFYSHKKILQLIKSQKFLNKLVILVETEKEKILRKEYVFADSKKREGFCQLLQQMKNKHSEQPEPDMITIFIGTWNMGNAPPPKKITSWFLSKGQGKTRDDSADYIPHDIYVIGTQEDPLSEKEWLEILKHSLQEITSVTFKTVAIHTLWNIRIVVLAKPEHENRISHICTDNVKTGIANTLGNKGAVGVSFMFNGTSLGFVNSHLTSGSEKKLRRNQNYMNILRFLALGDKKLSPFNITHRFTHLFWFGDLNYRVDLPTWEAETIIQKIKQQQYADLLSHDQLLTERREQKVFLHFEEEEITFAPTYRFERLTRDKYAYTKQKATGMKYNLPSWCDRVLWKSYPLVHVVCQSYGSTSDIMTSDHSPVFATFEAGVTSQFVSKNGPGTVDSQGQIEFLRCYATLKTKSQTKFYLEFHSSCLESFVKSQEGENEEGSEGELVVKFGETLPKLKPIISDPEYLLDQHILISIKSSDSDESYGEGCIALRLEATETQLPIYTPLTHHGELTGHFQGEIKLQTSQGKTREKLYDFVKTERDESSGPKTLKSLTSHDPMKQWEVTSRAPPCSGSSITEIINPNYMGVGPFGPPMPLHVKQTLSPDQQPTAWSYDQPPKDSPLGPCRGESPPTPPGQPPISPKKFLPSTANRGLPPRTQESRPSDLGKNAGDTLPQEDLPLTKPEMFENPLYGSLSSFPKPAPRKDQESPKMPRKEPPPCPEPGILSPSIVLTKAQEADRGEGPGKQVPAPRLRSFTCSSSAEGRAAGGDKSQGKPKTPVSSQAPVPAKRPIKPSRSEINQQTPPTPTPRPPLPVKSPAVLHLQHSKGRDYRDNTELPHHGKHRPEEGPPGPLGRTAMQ
Protocol: The assay was performed in 96-well microtitre plates. SHIP 1 enzyme was produced with a hemagglutinin and a hexahistidine tag, from a mammalian expression vector. The His tag was employed to enhance purification. SHIP 1 enzyme (10 ng) was incubated with extract or DMSO for 15 minutes at room temperature before addition of 200 µM inositol-1,3,4,5-tetrakisphosphate. The reaction was allowed to proceed for 20 minutes at 37 degrees C. The amount of inorganic phosphate released was then assessed by the addition of malachite green reagent followed by an absorbance measurement at 650 nm.

SHIP 1−/− macrophages = experiment: Macrophage NO release assay in SHIP 1-/- macrophages; type: cell-based; conditions: FIG. 2
Protocol: For the NO release assay, wild-type or SHIP 1−/− macrophage cells were aliquoted into microtitre plates (5×10^4/well) and activated with […] endotoxin (LPS) in the presence or absence of test compound or DMSO carrier. The cells were incubated at 37° C., 5% CO2 for 24 hours and the culture supernatant was removed for NO determination using the Griess reagent. Alternatively, J774.1a macrophage cells were treated with 10 ng/ml of test compound dissolved in DMSO for 40 minutes prior to the addition of LPS. Culture supernatants were collected after 24 hr. for determination of NO concentration using the Griess reagent.

antitrypanosomal = conditions: reported in literature; cited from earlier work
[1] = test system: bone marrow derived mast cells; experiment: Mast cell activation assay (β-hexosaminidase release); type: cell-based; conditions: FIG. 3
Protocol: For the mast cell activation assay, bone marrow derived mast cells were incubated at 4° C. with anti-DNP IgE for 1 hr. They were then washed twice with 23° C. Tyrode's buffer, and incubated in the presence of test compound or vehicle control for 30 minutes before a 15 minute treatment with DNP-human serum albumin. The degree of degranulation was determined by measuring the release of β-hexosaminidase.

COC(=O)c1cc(O)c(O)c2c1[C@]1(C)CC[C@H]3C(C)(C)CCC[C@]3(C)[C@H]1C2 [Pelorol, pelorol]
antiplasmodial effects (antiplasmodial): weak | Activation of SHIP 1 in enzyme assay (assay-guided fractionation) (SHIP 1 enzyme): active compound | Inhibition of NO release in SHIP 1−/− macrophages (SHIP 1−/− macrophages): not observed | antitrypanosomal effects (antitrypanosomal): weak | IgE induced mast cell degranulation [1]: significantly reduced
